# Results taken from ChEMBL document CHEMBL1143041, “On the cytotoxicity and status of oxidative stress of two novel synthesized tri-aza macrocyclic diamides as studied in the V79 cell lines” (Bioorg Med Chem, 2007).
# How the values were obtained:
# V79 [1] = experiment: Effect on malondialdehyde level in V79 cells at 8 mM after 24 hrs in presence of 30 uM alpha-tocopherol; format: functional, Cricetulus griseus
# V79 [2] = experiment: Effect on 8-hydroxy-deoxyguanosine level in V79 cells at 8 mM after 24 hrs in presence of 30 uM alpha-tocopherol; format: functional, Cricetulus griseus
# [3] = Cytotoxicity against V79 cells assessed as viability at 8 mM after 24 hrs by MTT assay; format: cell-based, Cricetulus griseus; settings: chinese hamster, read-out: Activity
# V79 [4] = experiment: Effect on V79 cells assessed as apoptotic cells at 2 mM; format: functional, Cricetulus griseus
# V79 [5] = experiment: Increase in catalase activity in V79 cells at 4 mM after 24 hrs; format: cell-based; settings: Cricetulus griseus
# V79 [6] = experiment: Increase in catalase activity in V79 cells at 8 mM after 24 hrs; format: cell-based; settings: Cricetulus griseus
# V79 [7] = experiment: Effect on malondialdehyde level in V79 cells at 1 mM after 24 hrs; format: functional, Cricetulus griseus
# V79 [8] = experiment: Stimulation of ROS generation in V79 cells; format: functional, cell-based; settings: Cricetulus griseus
# V79 [9] = experiment: Effect on superoxide dismutase activity in V79 cells at 0.5 mM after 24 hrs; format: cell-based; settings: Cricetulus griseus
# V79 [10] = experiment: Effect on superoxide dismutase activity in V79 cells at 8 mM after 24 hrs in presence of 30 uM alpha-tocopherol; format: cell-based; settings: Cricetulus griseus
# V79 [11] = experiment: Effect on dityrosine level in V79 cells at 2 mM after 24 hrs; format: functional, Cricetulus griseus
# V79 [12] = experiment: Effect on V79 cells assessed as viable cells at 2 mM; format: functional; settings: Cricetulus griseus, read-out: Activity
# V79 [13] = experiment: Increase in superoxide dismutase activity in V79 cells at 2 mM after 24 hrs; format: cell-based; settings: Cricetulus griseus
# V79 [14] = experiment: Effect on 8-hydroxy-deoxyguanosine level in V79 cells at 1 mM after 24 hrs; format: functional, Cricetulus griseus
# V79 [15] = experiment: Effect on glutathione peroxidase activity in V79 cells at 8 mM after 24 hrs in presence of 30 uM alpha-tocopherol; format: cell-based; settings: Cricetulus griseus
# V79 [16] = experiment: Effect on dityrosine level in V79 cells at 4 mM after 24 hrs; format: functional, Cricetulus griseus
# V79 [17] = experiment: Effect on V79 cells assessed as necrotic cells at 4 mM; format: functional, Cricetulus griseus
# V79 [18] = experiment: Increase in glutathione peroxidase activity in V79 cells at 4 mM after 24 hrs; format: cell-based; settings: Cricetulus griseus
# V79 [19] = experiment: Effect on dityrosine level in V79 cells at 0.5 mM after 24 hrs; format: functional, Cricetulus griseus
# V79 [20] = experiment: Effect on catalase activity in V79 cells at 8 mM after 24 hrs in presence of 30uM alpha-tocopherol; format: cell-based; settings: Cricetulus griseus
# V79 [21] = experiment: Effect on dityrosine level in V79 cells at 8 mM after 24 hrs; format: functional, Cricetulus griseus
# V79 [22] = experiment: Effect on V79 cells assessed as viable cells at 4 mM in presence of 30 uM alpha-tocopherol; format: functional, Cricetulus griseus
# V79 [23] = experiment: Increase in catalase activity in V79 cells at 1 mM after 24 hrs; format: cell-based; settings: Cricetulus griseus
# V79 [24] = experiment: Increase in glutathione peroxidase activity in V79 cells at 8 mM after 24 hrs; format: cell-based; settings: Cricetulus griseus
# V79 [25] = experiment: Effect on dityrosine level in V79 cells at 1 mM after 24 hrs; format: functional, Cricetulus griseus
# V79 [26] = experiment: Increase in superoxide dismutase activity in V79 cells at 8 mM after 24 hrs; format: cell-based; settings: Cricetulus griseus
# V79 [27] = experiment: Effect on dityrosine level in V79 cells at 8 mM after 24 hrs in presence of 30 uM alpha-tocopherol; format: functional, Cricetulus griseus
# V79 [28] = experiment: Effect on malondialdehyde level in V79 cells at 4 mM after 24 hrs; format: functional, Cricetulus griseus
# V79 [29] = experiment: Increase in superoxide dismutase activity in V79 cells at 4 mM after 24 hrs; format: cell-based; settings: Cricetulus griseus
# V79 [30] = experiment: Increase in glutathione peroxidase activity in V79 cells at 1 mM after 24 hrs; format: cell-based; settings: Cricetulus griseus
# V79 [31] = experiment: Effect on malondialdehyde level in V79 cells at 0.5 mM after 24 hrs; format: functional, Cricetulus griseus
# V79 [32] = experiment: Effect on glutathione peroxidase activity in V79 cells at 0.5 mM after 24 hrs; format: cell-based; settings: Cricetulus griseus
# V79 [33] = experiment: Effect on V79 cells assessed as necrotic cells at 2 mM; format: functional, Cricetulus griseus
# V79 [34] = experiment: Effect on V79 cells assessed as viable cells at 4 mM; format: functional; settings: Cricetulus griseus, read-out: Activity
# V79 [35] = experiment: Effect on V79 cells assessed as viable cells at 2 mM in presence of 30 uM alpha-tocopherol; format: functional, Cricetulus griseus
# V79 [36] = experiment: Effect on malondialdehyde level in V79 cells at 8 mM after 24 hrs; format: functional, Cricetulus griseus
# V79 [37] = experiment: Effect on 8-hydroxy-deoxyguanosine level in V79 cells at 2 mM after 24 hrs; format: functional, Cricetulus griseus
# V79 [38] = experiment: Increase in catalase activity in V79 cells at 2 mM after 24 hrs; format: cell-based; settings: Cricetulus griseus
# V79 [39] = experiment: Effect on V79 cells assessed as apoptotic cells at 2 mM in presence of 30 uM alpha-tocopherol; format: functional, Cricetulus griseus
# V79 [40] = experiment: Increase in superoxide dismutase activity in V79 cells at 1 mM after 24 hrs; format: cell-based; settings: Cricetulus griseus
# V79 [41] = experiment: Increase in glutathione peroxidase activity in V79 cells at 2 mM after 24 hrs; format: cell-based; settings: Cricetulus griseus
# V79 [42] = experiment: Effect on 8-hydroxy-deoxyguanosine level in V79 cells at 8 mM after 24 hrs; format: functional, Cricetulus griseus
# V79 [43] = experiment: Effect on V79 cells assessed as apoptotic cells at 4 mM in presence of 30 uM alpha-tocopherol; format: functional, Cricetulus griseus
# V79 [44] = experiment: Effect on V79 cells assessed as apoptotic cells at 4 mM; format: functional, Cricetulus griseus
# V79 [45] = experiment: Effect on 8-hydroxy-deoxyguanosine level in V79 cells at 4 mM after 24 hrs; format: functional, Cricetulus griseus
# V79 [46] = experiment: Effect on 8-hydroxy-deoxyguanosine level in V79 cells at 0.5 mM after 24 hrs; format: functional, Cricetulus griseus
# V79 [47] = experiment: Effect on catalase activity in V79 cells at 0.5 mM after 24 hrs; format: cell-based; settings: Cricetulus griseus
# V79 [48] = experiment: Effect on malondialdehyde level in V79 cells at 2 mM after 24 hrs; format: functional, Cricetulus griseus
# V79 [49] = experiment: Effect on malondialdehyde level in V79 cells at 30 uM after 24 hrs; format: functional, Cricetulus griseus
# V79 [50] = experiment: Effect on catalase activity in V79 cells at 30 uM after 24 hrs; format: cell-based; settings: Cricetulus griseus
# V79 [51] = experiment: Effect on dityrosine level in V79 cells at 30 uM after 24 hrs; format: functional, Cricetulus griseus
# V79 [52] = experiment: Effect on glutathione peroxidase activity in V79 cells at 30 uM after 24 hrs; format: cell-based; settings: Cricetulus griseus
# V79 [53] = experiment: Effect on superoxide dismutase activity in V79 cells at 30 uM after 24 hrs; format: cell-based; settings: Cricetulus griseus
# V79 [54] = experiment: Effect on 8-hydroxy-deoxyguanosine level in V79 cells at 30 uM after 24 hrs; format: functional, Cricetulus griseus
smiles,measurement,setting,value
Cc1ccc2c(c1)[S+]([O-])c1cc(C)ccc1OCC(=O)NCCNCCNC(=O)CO2,Activity,V79 [1],17.63 nM/mg
same,Activity,V79 [2],6.4
same,"viability at 24 h, 8000 µM",[3],24%
same,Activity,V79 [4],40.2%
same,Activity (microM/min/mg),V79 [5],27.2
same,Activity (microM/min/mg),V79 [6],35.7
same,Activity,V79 [7],16.53 nM/mg
same,Activity,V79 [8],Dose-dependent effect
same,Activity,V79 [9],14.4 U/mg
same,Activity,V79 [10],23.5 U/mg
same,Activity,V79 [11],1.61 nM/mg
same,viability at 2000 µM,V79 [12],54.4%
same,Activity,V79 [13],36.4 U/mg
same,Activity,V79 [14],5.5
same,Activity,V79 [15],22.4 nmol/min/mg
same,Activity,V79 [16],3.88 nM/mg
same,Activity,V79 [17],6.3%
same,Activity,V79 [18],33.4 nmol/min/mg
same,Activity,V79 [19],0.54 nM/mg
same,Activity (microM/min/mg),V79 [20],10.2
same,Activity,V79 [21],6.41 nM/mg
same,Activity,V79 [22],52.6%
same,Activity (microM/min/mg),V79 [23],9.71
same,Activity,V79 [24],41.1 nmol/min/mg
same,Activity,V79 [25],0.75 nM/mg
same,Activity,V79 [26],56.4 U/mg
same,Activity,V79 [27],2.21 nM/mg
same,Activity,V79 [28],36.63 nM/mg
same,Activity,V79 [29],48.7 U/mg
same,Activity,V79 [30],22.1 nmol/min/mg
same,Activity,V79 [31],8.72 nM/mg
same,Activity,V79 [32],16.6 nmol/min/mg
same,Activity,V79 [33],4.6%
same,viability at 4000 µM,V79 [34],41.2%
same,Activity,V79 [35],71.2%
same,Activity,V79 [36],55.12 nM/mg
same,Activity,V79 [37],7.4
same,Activity (microM/min/mg),V79 [38],15.3
same,Activity,V79 [39],28.5%
same,Activity,V79 [40],22.1 U/mg
same,Activity,V79 [41],26.3 nmol/min/mg
same,Activity,V79 [42],9.1
same,Activity,V79 [43],32.7%
same,Activity,V79 [44],51.4%
same,Activity,V79 [45],8.5
same,Activity,V79 [46],4.7
same,Activity (microM/min/mg),V79 [47],6.81
same,Activity,V79 [48],25.16 nM/mg
Cc1c(C)c2c(c(C)c1O)CC[C@@](C)(CCC[C@H](C)CCC[C@H](C)CCCC(C)C)O2 [ALPHA-TOCOPHEROL],Activity,V79 [49],7.51 nM/mg
same,Activity (microM/min/mg),V79 [50],4.5
same,Activity,V79 [51],0.42 nM/mg
same,Activity,V79 [52],14.1 nmol/min/mg
same,Activity,V79 [53],13.2 U/mg
same,Activity,V79 [54],3.51
Cc1ccc2c(c1)Sc1cc(C)ccc1OCC(=O)NCCNCCNC(=O)CO2,Activity,V79 [1],15.01 nM/mg
same,Activity,V79 [2],5.76
same,Activity,V79 [4],25.1%
same,Activity (microM/min/mg),V79 [5],22.4
same,Activity (microM/min/mg),V79 [6],27.2
same,Activity,V79 [7],13.77 nM/mg
same,Activity,V79 [8],Dose-dependent effect
same,Activity,V79 [9],18.8 U/mg
same,Activity,V79 [10],21.8 U/mg
same,Activity,V79 [11],2.45 nM/mg
same,viability at 2000 µM,V79 [12],71.4%
same,Activity,V79 [13],31.2 U/mg
same,Activity,V79 [14],5
same,Activity,V79 [15],20.8 nmol/min/mg
same,Activity,V79 [16],4.31 nM/mg
same,Activity,V79 [17],4.1%
same,Activity,V79 [18],37.5 nmol/min/mg
same,Activity,V79 [19],0.74 nM/mg
same,Activity (microM/min/mg),V79 [20],8.77
same,Activity,V79 [21],8.27 nM/mg
same,Activity,V79 [22],69.1%
same,Activity (microM/min/mg),V79 [23],8.47
same,Activity,V79 [24],47.6 nmol/min/mg
same,Activity,V79 [25],1.19 nM/mg
same,Activity,V79 [26],49.2 U/mg
same,Activity,V79 [27],1.43 nM/mg
same,Activity,V79 [28],35.691 nM/mg
same,Activity,V79 [29],40.1 U/mg
same,Activity,V79 [30],23.3 nmol/min/mg
same,Activity,V79 [31],11.17 nM/mg
same,Activity,V79 [32],18.6 nmol/min/mg
same,Activity,V79 [33],2.6%
same,viability at 4000 µM,V79 [34],58.2%
same,Activity,V79 [35],80.5%
same,Activity,V79 [36],52.55 nM/mg
same,Activity,V79 [37],5.8
same,Activity (microM/min/mg),V79 [38],12.2
same,Activity,V79 [39],17.4%
same,Activity,V79 [40],21.3 U/mg
same,Activity,V79 [41],30.6 nmol/min/mg
same,Activity,V79 [42],6.9
same,Activity,V79 [43],22.6%
same,Activity,V79 [44],37.3%
same,Activity,V79 [45],7.3
same,Activity,V79 [46],4.4
same,Activity (microM/min/mg),V79 [47],5.48
same,Activity,V79 [48],21.46 nM/mg
